Measured values taken from article PMC9344893 (ACS Medicinal Chemistry Letters, 2022).

Tests used:
[1] = system: panel of 10 human MTases; assay: Human MTase screening, panel as a whole; assay type: biochemical; settings: 10 μM
[2] = target: SARS-CoV-2 Nsp14 MTase (Severe acute respiratory syndrome coronavirus 2, UniProt P0DTD1); assay type: biochemical
[3] = system: A549/ACE2/TMPRSS2 cells; assay: Cell viability assay; assay type: cell-based
[4] = system: SARS-CoV-2 isolate USA-WA1/2020

## Nc1ncnc2c1ncn2[C@@H]1O[C@H](CNS(=O)(=O)c2ccc3ccccc3c2)[C@@H](O)[C@H]1O [Compound 3]
[1]
  inhibition of the set of human MTases (in words): minimal inhibition
[2]
  fold more active than compound 1: > 150 fold

## Nc1ncnc2c1ncn2[C@@H]1O[C@H](CNS(=O)(=O)c2ccc3nc(Cl)ccc3c2)[C@@H](O)[C@H]1O [Compound 5]
[2]
  fold reduction in inhibitory activity: 7 fold

## CC(=O)O[C@@H]1[C@H](OC(C)=O)[C@@H](CNS(=O)(=O)c2ccc3ccccc3c2)O[C@H]1n1cnc2c(N)ncnc21 [Compound 8]
[3]
  cytotoxicity at 100 μM (in words): minimal cytotoxicity

## CC(=O)Nc1ncnc2c1ncn2[C@@H]1O[C@H](CNS(=O)(=O)c2ccc3ccccc3c2)[C@@H](OC(C)=O)[C@H]1OC(C)=O [Compound 9]
[3]
  cytotoxicity at 100 μM (in words): minimal cytotoxicity

## Nc1ncnn2c([C@@H]3O[C@H](CNS(=O)(=O)c4ccc5ccccc5c4)[C@@H](O)[C@H]3O)ccc12 [Compound 10]
[4]; A549 AT cells
  therapeutic index (TI = CC50/EC50): greater than 139

## Nc1ncnc2c1ncn2[C@@H]1O[C@H](C[C@@H](N)CC[C@H](N)C(=O)O)[C@@H](O)[C@H]1O [sinefungin, reference compound]
[4]
  antiviral activity (in words): failed to show any activity
